Reference: ChEMBL document CHEMBL1136327, “Synthesis of a highly active new anti-HIV agent 2',3'-didehydro-3'-deoxy-4'-ethynylthymidine” (Bioorg Med Chem Lett, 2003)

Assays:
[1] = test system: Human immunodeficiency virus 1; test: Inhibitory activity against HIV-1 IIIB to achieve 50% protection of MT-2 cells; type: functional, organism-based; conditions: Human immunodeficiency virus 1, MT2
MT2 = test: Cytotoxic concentration required to reduce the viability of mock-infected MT-2 cells by 50%; type: functional; conditions: Homo sapiens

| IC50 [1] | Structure (SMILES) | CC50 (MT2) |
| --- | --- | --- |
| > 100 µM | Cc1cn([C@H]2C=C[C@@](C)(CO)O2)c(=O)[nH]c1=O | > 100 µM |
| 2.8 µM | Cc1cn([C@H]2C=C[C@@H](CO)O2)c(=O)[nH]c1=O [STAVUDINE] | 100 µM |
| 0.2 µM | C#C[C@@]1(CO)C=C[C@H](n2cc(C)c(=O)[nH]c2=O)O1 [CENSAVUDINE] | > 100 µM |
| > 100 µM | C=C[C@@]1(CO)C=C[C@H](n2cc(C)c(=O)[nH]c2=O)O1 | > 100 µM |
